Results taken from US11596639B2, “Substituted indole Mcl-1 inhibitors” (Vanderbilt University, priority 2016, dated 2023).
pKi: −log10 of the molar value. Like-named read-outs stand apart in the source and are kept apart here.

Columns and labels:
[1] = test system: H929 human cancer cell lines; test: Cellular viability / proliferation (Cell TiterGlo, 72 h); format: cell-based
Outline: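 Cells were seeded at 1,000 cells/well in medium with 10% FBS and dosed 24 h later with a 2-fold serial dilution of compound (top concentration 50 μM, final DMSO <1%).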

[2] = molecular target: Mcl-1 (Homo sapiens (Human), UniProt Q07820); test: Fluorescence polarization anisotropy (FPA) competition assay, FITC-Bak or FITC-Bim BH3 peptide; format: binding; conditions: read-out: Ki for Inhibition of Mcl-1 by FPA assay
Sequence of Mcl-1 (Q07820 172-327): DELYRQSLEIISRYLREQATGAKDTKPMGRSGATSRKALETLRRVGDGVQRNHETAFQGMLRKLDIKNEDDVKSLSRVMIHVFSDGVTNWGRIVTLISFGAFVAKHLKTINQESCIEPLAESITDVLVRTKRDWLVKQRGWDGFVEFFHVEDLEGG

[3] = Homo sapiens, NCI-H929, 72 h, read-out: GI50 on cellular proliferation of H929 human cancer cell lines, H929 cells, 72 h, Cell TiterGlo, 10% FBS
[4] = H929 cells, 72 h, Cell TiterGlo, 10% FBS, read-out: GI50 on cellular proliferation of H929 human cancer cell lines
[5] = read-out: GI50 on cellular proliferation of H929 human cancer cell lines, H929 cells, 72 h, Cell TiterGlo, 10% FBS

Structure (SMILES)	GI50 [1, 3] [nM]	pKi [2]	GI50 [1, 4] [nM]	GI50 [1, 5] [nM]
Cc1cc(OCCCc2c3n(c4c(-c5c(C)nn(C)c5C)c(Cl)ccc24)[C@H](C)CN(c2cccc4cc(C(=O)O)n(Cc5cccnc5)c24)C3=O)cc(C)c1Cl [Example 245, 7-[(4R)-7-chloro-10-[3-(4-chloro-3,5-dimethyl-phenoxy)propyl]-4-methyl-1-oxo-6-(1,3,5-trimethylpyrazol-4-yl)-3,4-dihydropyrazino[1,2-a]indol-2-yl]-1-(3-pyridylmethyl)indole-2-carboxylic acid]	900	> 9.00	–	–
COc1cc(C(=O)O)cc(N2CCCn3c(c(CCCOc4cc(C)c(Cl)c(C)c4)c4ccc(Cl)c(-c5c(C)nn(C)c5C)c43)C2=O)c1OCCOc1ccccc1F [Example 65, 3-[8-Chloro-11-[3-(4-chloro-3,5-dimethyl-phenoxy)propyl]-1-oxo-7-(1,3,5-trimethylpyrazol-4-yl)-4,5-dihydro-3H-[1,4]diazepino[1,2-a]indol-2-yl]-4-[2-(2-fluorophenoxy)ethoxy]-5-methoxy-benzoic acid]	5500	8.51	–	–
Cc1cc(N2C[C@@H](C)n3c(c(CCCOc4cc(C)c(Cl)c(C)c4)c4ccc(Cl)c(-c5c(C)nn(CCN6CCCC6)c5C)c43)C2=O)c2c(c1)cc(C(=O)O)n2C [Example 463, (R)-7-(7-Chloro-10-(3-(4-chloro-3,5-dimethylphenoxy)propyl)-6-(3,5-dimethyl-1-(2-(pyrrolidin-1-yl)ethyl)-1H-pyrazol-4-yl)-4-methyl-1-oxo-3,4-dihydropyrazino[1,2-a]indol-2(1H)-yl)-1,5-dimethyl-1H-indole-2-carboxylic acid]	290	8.68	–	–
Cc1cc(OCCCc2c3n(c4c(-c5c(C)nc(N6CCN(C)CC6)nc5C)c(Cl)ccc24)CCCN(c2cn(C)c4ccc(C(=O)O)cc24)C3=O)cc(C)c1Cl [Example 228, 3-(8-Chloro-11-(3-(4-chloro-3,5-dimethylphenoxy)propyl)-7-(4,6-dimethyl-2-(4-methylpiperazin-1-yl)pyrimidin-5-yl)-1-oxo-4,5-dihydro-1H-[1,4]diazepino[1,2-a]indol-2(3H)-yl)-1-methyl-1H-indole-5-carboxylic acid]	780	8.80	–	–
COCCOc1cc(N2C[C@@H](C)n3c(c(CCCOc4cc(C)c(Cl)c(C)c4)c4ccc(Cl)c(-c5c(C)nn(C)c5C)c43)C2=O)c2cc(C(=O)O)n(C)c2c1 [Example 328, (M, R)-4-(7-Chloro-10-(3-(4-chloro-3,5-dimethylphenoxy)propyl)-4-methyl-1-oxo-6-(1,3,5-trimethyl-1H-pyrazol-4-yl)-3,4-dihydropyrazino[1,2-a]indol-2(1H)-yl)-6-(2-methoxyethoxy)-1-methyl-1H-indole-2-carboxylic acid]	–	> 9.00	690	–
Cc1cc(OCCCc2c3n(c4c(-c5c(C)nn(C)c5C)c(Cl)ccc24)[C@H](C)CN(c2ccc(F)c4c(C(=O)O)c[nH]c24)C3=O)cc(C)c1Cl [Example 438, (R)-7-(7-Chloro-10-(3-(4-chloro-3,5-dimethylphenoxy)propyl)-4-methyl-1-oxo-6-(1,3,5-trimethyl-1H-pyrazol-4-yl)-3,4-dihydropyrazino[1,2-a]indol-2(1H)-yl)-4-fluoro-1H-indole-3-carboxylic acid]	2800	8.96	–	–
Cc1cc(N2C[C@@H](C)n3c(c(CCCOc4cc(C)c(Cl)c(C)c4)c4ccc(Cl)c(-c5c(C)nc(CN6CCN(C)CC6)nc5C)c43)C2=O)c2c(c1)cc(C(=O)O)n2C [Example 426, (R)-7-(7-Chloro-10-(3-(4-chloro-3,5-dimethylphenoxy)propyl)-6-(4,6-dimethyl-2-((4-methylpiperazin-1-yl)methyl)pyrimidin-5-yl)-4-methyl-1-oxo-3,4-dihydropyrazino[1,2-a]indol-2(1H)-yl)-1,5-dimethyl-1H-indole-2-carboxylic acid]	250	> 9.00	–	–
CC(=O)c1ccc2c(c1)c(N1C[C@@H](C)n3c(c(CCCOc4cc(C)c(Cl)c(C)c4)c4ccc(Cl)c(-c5c(C)nn(C)c5C)c43)C1=O)cn2C [Example 260, (R)-2-(5-Acetyl-1-methyl-1H-indol-3-yl)-7-chloro-10-(3-(4-chloro-3,5-dimethylphenoxy)propyl)-4-methyl-6-(1,3,5-trimethyl-1H-pyrazol-4-yl)-3,4-dihydropyrazino[1,2-a]indol-1(2H)-one]	550	> 9.00	–	–
Cc1cc(OCCCc2c3n(c4c(-c5c(C)nn(C)c5C)c(Cl)ccc24)[C@H](C)CN(c2cccc4c(C(=O)O)cn(Cc5ccccn5)c24)C3=O)cc(C)c1Cl [Example 468, (R)-7-(7-Chloro-10-(3-(4-chloro-3,5-dimethylphenoxy)propyl)-4-methyl-1-oxo-6-(1,3,5-trimethyl-1H-pyrazol-4-yl)-3,4-dihydropyrazino[1,2-a]indol-2(1H)-yl)-1-(pyridin-2-ylmethyl)-1H-indole-3-carboxylic acid]	260	> 9.00	–	–
Cc1cc(OCCCc2c3n(c4c(-c5c(C)nn(C)c5C)c(Cl)ccc24)[C@H](C)CN(c2cccc4c2cc(-c2nnco2)n4C)C3=O)cc(C)c1Cl [Example 347, (R)-7-Chloro-10-(3-(4-chloro-3,5-dimethylphenoxy)propyl)-4-methyl-2-(1-methyl-2-(1,3,4-oxadiazol-2-yl)-1H-indol-4-yl)-6-(1,3,5-trimethyl-1H-pyrazol-4-yl)-3,4-dihydropyrazino[1,2-a]indol-1(2H)-one]	1900	8.44	–	–
Cc1cc(OCCCc2c3n(c4c(-c5c(C)nn(C)c5C)c(Cl)ccc24)[C@H](C)CN(c2cn(C)c4c(-c5nnn(C)n5)cccc24)C3=O)cc(C)c1Cl [Example 362, (R)-7-Chloro-10-(3-(4-chloro-3,5-dimethylphenoxy)propyl)-4-methyl-2-(1-methyl-7-(2-methyl-2H-tetrazol-5-yl)-1H-indol-3-yl)-6-(1,3,5-trimethyl-1H-pyrazol-4-yl)-3,4-dihydropyrazino[1,2-a]indol-1(2H)-one]	970	8.77	–	–
Cc1cc(OCCCc2c3n(c4c(-c5c(C)nn(C)c5C)c(Cl)ccc24)[C@H](C)CN(c2cccc4c(C(=O)O)cn(C)c24)C3=O)cc(C)c1Cl [Example 214, (R)-7-(7-chloro-10-(3-(4-chloro-3,5-dimethylphenoxy)propyl)-4-methyl-1-oxo-6-(1,3,5-trimethyl-1H-pyrazol-4-yl)-3,4-dihydropyrazino[1,2-a]indol-2(1H)-yl)-1-methyl-1H-indole-3-carboxylic acid]	–	> 9.00	–	380
Cc1cc(OCCCc2c3n(c4c(-c5c(C)nn(C)c5C)c(Cl)ccc24)[C@H](C)CN(c2cn(C)c4ccc(C(=O)Nc5ccccn5)cc24)C3=O)cc(C)c1Cl [Example 280, 3-[(4R)-7-chloro-10-[3-(4-chloro-3,5-dimethyl-phenoxy)propyl]-4-methyl-1-oxo-6-(1,3,5-trimethylpyrazol-4-yl)-3,4-dihydropyrazino[1,2-a]indol-2-yl]-1-methyl-N-(2-pyridyl)indole-5-carboxamide]	2200	8.82	–	–
Cc1cc(OCCCc2c3n(c4c(-c5c(C)nn(C)c5C)c(Cl)ccc24)[C@H](C)CN(c2cccc4cc(C(=O)O)n(Cc5cncnc5)c24)C3=O)cc(C)c1Cl [Example 311, 7-[(4R)-7-chloro-10-[3-(4-chloro-3,5-dimethyl-phenoxy)propyl]-4-methyl-1-oxo-6-(1,3,5-trimethylpyrazol-4-yl)-3,4-dihydropyrazino[1,2-a]indol-2-yl]-1-(pyrimidin-5-ylmethyl)indole-2-carboxylic acid]	3400	> 9.00	–	–
Cc1cc(OCCCc2c3n(c4c(-c5c(C)nn(C)c5C)c(Cl)ccc24)[C@H](C)CN(c2cccc4cc(C(=O)O)n(Cc5ccccn5)c24)C3=O)cc(C)c1Cl [Example 247, 7-[(4R)-7-chloro-10-[3-(4-chloro-3,5-dimethyl-phenoxy)propyl]-4-methyl-1-oxo-6-(1,3,5-trimethylpyrazol-4-yl)-3,4-dihydropyrazino[1,2-a]indol-2-yl]-1-(2-pyridylmethyl)indole-2-carboxylic acid]	–	> 9.00	–	< 200
Cc1cc(OCCCc2c3n(c4c(-c5c(C)nn(C)c5C)c(Cl)ccc24)[C@H](C)CN(c2cc(OCC4COC4)cc4cc(C(=O)O)n(C)c24)C3=O)cc(C)c1Cl [Example 459, (R)-7-(7-Chloro-10-(3-(4-chloro-3,5-dimethylphenoxy)propyl)-4-methyl-1-oxo-6-(1,3,5-trimethyl-1H-pyrazol-4-yl)-3,4-dihydropyrazino[1,2-a]indol-2(1H)-yl)-1-methyl-5-(oxetan-3-ylmethoxy)-1H-indole-2-carboxylic acid]	510	9.00	–	–
COc1ccc(N2C[C@@H](C)n3c(c(CCCOc4cc(C)c(Cl)c(C)c4)c4ccc(Cl)c(-c5c(C)nn(C)c5C)c43)C2=O)c2cc(C(=O)O)n(C)c12 [Example 344, (M, R)-4-(7-Chloro-10-(3-(4-chloro-3,5-dimethylphenoxy)propyl)-4-methyl-1-oxo-6-(1,3,5-trimethyl-1H-pyrazol-4-yl)-3,4-dihydropyrazino[1,2-a]indol-2(1H)-yl)-7-methoxy-1-methyl-1H-indole-2-carboxylic acid]	–	> 9.00	1300	–
Cc1cc(OCCCc2c3n(c4c(-c5c(C)nn(C)c5C)c(Cl)ccc24)[C@H](C)CN(c2cccc4cc(C(=O)O)n(Cc5ccccc5)c24)C3=O)cc(C)c1Cl [Example 241, 1-Benzyl-7-[(4R)-7-chloro-10-[3-(4-chloro-3,5-dimethyl-phenoxy)propyl]-4-methyl-1-oxo-6-(1,3,5-trimethylpyrazol-4-yl)-3,4-dihydropyrazino[1,2-a]indol-2-yl]indole-2-carboxylic acid]	420	> 9.00	–	–
